Experimental findings from patent publication US20150141433A1, “N-ARYLMETHYL SULFONAMIDE NEGATIVE MODULATORS OF NR2A” (Mnemosyne Pharmaceuticals, Inc., priority 2013, published 2015) are described below.

SMILES strings stand for the structures.

T1 sequence (Q12879 23-1464, other chains not shown): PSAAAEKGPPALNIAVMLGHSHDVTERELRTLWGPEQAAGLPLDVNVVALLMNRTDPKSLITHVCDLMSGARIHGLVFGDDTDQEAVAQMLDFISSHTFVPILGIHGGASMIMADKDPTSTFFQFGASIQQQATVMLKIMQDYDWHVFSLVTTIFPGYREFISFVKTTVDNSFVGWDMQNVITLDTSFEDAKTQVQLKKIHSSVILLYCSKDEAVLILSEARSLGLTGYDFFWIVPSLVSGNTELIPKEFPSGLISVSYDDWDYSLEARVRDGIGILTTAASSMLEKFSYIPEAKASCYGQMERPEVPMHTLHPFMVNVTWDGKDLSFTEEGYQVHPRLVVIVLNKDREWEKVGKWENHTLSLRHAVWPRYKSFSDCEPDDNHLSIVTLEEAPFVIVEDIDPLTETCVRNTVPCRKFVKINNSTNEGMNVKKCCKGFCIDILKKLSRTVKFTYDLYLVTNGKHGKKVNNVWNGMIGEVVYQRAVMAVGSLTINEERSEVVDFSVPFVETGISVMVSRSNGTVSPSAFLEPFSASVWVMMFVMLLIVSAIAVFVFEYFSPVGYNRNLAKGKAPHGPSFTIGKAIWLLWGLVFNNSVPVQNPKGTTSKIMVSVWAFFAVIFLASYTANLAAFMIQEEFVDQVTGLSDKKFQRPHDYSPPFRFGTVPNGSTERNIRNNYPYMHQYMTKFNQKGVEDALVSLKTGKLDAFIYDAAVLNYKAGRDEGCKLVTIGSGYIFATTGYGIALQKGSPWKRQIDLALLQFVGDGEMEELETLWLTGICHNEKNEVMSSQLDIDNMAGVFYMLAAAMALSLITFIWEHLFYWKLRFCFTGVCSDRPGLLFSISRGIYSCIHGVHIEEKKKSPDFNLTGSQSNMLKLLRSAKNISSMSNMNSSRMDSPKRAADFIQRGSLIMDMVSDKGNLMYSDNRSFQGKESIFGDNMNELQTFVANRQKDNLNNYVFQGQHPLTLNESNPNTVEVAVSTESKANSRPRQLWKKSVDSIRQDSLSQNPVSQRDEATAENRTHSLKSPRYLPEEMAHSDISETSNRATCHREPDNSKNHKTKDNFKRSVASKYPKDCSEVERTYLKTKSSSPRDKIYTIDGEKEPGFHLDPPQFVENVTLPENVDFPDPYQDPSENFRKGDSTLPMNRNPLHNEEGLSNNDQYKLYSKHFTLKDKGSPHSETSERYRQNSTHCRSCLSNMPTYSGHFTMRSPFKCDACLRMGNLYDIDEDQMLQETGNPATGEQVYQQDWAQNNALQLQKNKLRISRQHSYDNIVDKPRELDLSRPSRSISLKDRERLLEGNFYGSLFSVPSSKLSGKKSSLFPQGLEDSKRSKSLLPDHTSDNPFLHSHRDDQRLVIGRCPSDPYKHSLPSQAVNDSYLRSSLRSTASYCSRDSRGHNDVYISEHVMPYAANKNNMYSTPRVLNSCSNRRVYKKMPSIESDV

One experiment addresses T1, NR1/NR2A (Homo sapiens, UniProt Q05586+Q12879).
T1 construct: host or cells: HEK293 (tetracycline-inducible NR2A expression)
Put plainly: FDSS Ca2+ influx inhibition assay in HEK293 cells expressing NR1/NR2A. The format is cell-based. The settings on record: 3 μM glutamate, 3 μM glycine, 1 mM Ca2+, Ca2+ influx inhibition relative to MK801, read-out: NR2A IC50. The method, then: Cell Culture and plating: HEK293 cells expressing NR1/NR2A (Chantest, Cleveland, Ohio) were grown to 70-80% confluency as an adherent monolayer in standard tissue culture flasks at 37° C., 5% CO2 per supplier's instructions.
After induction, cell culture medium was removed and cells were rinsed once with Ca^2+ and Mg^2+-free Dulbecco's phosphate buffered saline. Cells were then removed from the flask using TrypLE™ Express (Life Technologies) according to the manufacturer's instructions and collected to 50 ml centrifuge tubes. Following two washes in Ca^27 Mg^2′-free HBSS with 20 mM HEPES (HHnoCa), cells were counted and viability assessed using trypan blue. To load cells with Ca^2′-sensitive dye, they were resuspended in fluo-8 plus Component B (AAT Bioquest Products) diluted in HHnoCa and incubated 15 minutes at 37° C., followed by 30 minutes at room temp (in dark). Cells were then washed and resuspended in HHnoCa to remove extracellular dye and plated in 384-well plates (Falcon, uncoated) at 20,000-30,000 cells/well in a final volume of 25 μL/well.
FDSS Assay: To each well of the plate, 10 μLtest compound, control (MK801) or HHnoCa buffer was added to a final concentration of 10 μM with a final concentration of DMSO of 0.1%. Following 10 minutes pre-incubation in the dark, plates are loaded onto the Hamamatsu FDSS 6000. After collecting baseline fluorescence images, 3 μM glutamate, 3 μM glycine, and 1 mM Ca^2+ in HHnoCa buffer is added to each well, and Ca^2+ is recorded for 3 minutes. Data were processed by computing ratio of fluorescence at the end of data collection to baseline fluorescence to assess degree of Ca^2+ influx inhibition relative to that observed in MK801.
On to `Cc1ncc(CNC(=O)c2ccc(CNS(=O)(=O)c3cccs3)cn2)s1` [N-[(2-methyl-1,3-thiazol-5-yl)methyl]-5-(thiophene-2-sulfonamidomethyl) pyridine-2-carboxamide], for which the IC50 is 4020 nM.
Regarding `Cc1ncc(CNC(=O)c2cnc(CNS(=O)(=O)c3ccc(F)c(F)c3)cn2)s1` [5-(3,4-difluorobenzenesulfon-amidomethyl)-N-[(2-methyl-1,3-thiazol-5-yl)methyl]pyrazine-2-carboxamide], the IC50 worked out at 313 nM.
Still for that read-out and setting: in the case of `Cc1ncc(CNC(=O)c2cnc(CNS(=O)(=O)c3cccc(Cl)c3)cn2)s1` [5-(3-chlorobenzenesulfon-amidomethyl)-N-[(2-methyl-1,3-thiazol-5-yl)methyl]pyrazine-2-carboxamide] it was 839 nM; in that of `Cc1ncc(CNC(=O)c2cnc(CNS(=O)(=O)c3cccs3)cn2)s1` [N-[(2-methyl-1,3-thiazol-5-yl)methyl]-5-(thiophene-2-sulfonamidomethyl) pyrazine-2-carboxamide], 3770 nM.
Consider `O=C(NCc1cncc(F)c1)c1cnc(CNS(=O)(=O)c2ccc(F)c(Cl)c2)cn1` [5-(3-chloro-4-fluorobenzenesulfon-amidomethyl)-N-[(5-fluoropyridin-3-yl)methyl]pyrazine-2-carboxamide], for which the IC50 stood at 1100 nM.
As for `Cn1cccc1CNC(=O)c1ccc(CNS(=O)(=O)c2ccc(F)c(Cl)c2)cn1` [5-(3-chloro-4-fluorobenzenesulfon-amidomethyl)-N-[(1-methyl-1H-pyrrol-2-yl)methyl]pyridine-2-carboxamide], the IC50 is 2550 nM.
Turning to `COc1cccc(CNC(=O)c2ccc(CNS(=O)(=O)c3ccc(F)c(Cl)c3)cn2)c1` [5-(3-chloro-4-fluorobenzenesulfon-amidomethyl)-N-[(3-methoxyphenyl)methyl] pyridine-2-carboxamide], the IC50 amounted to 3370 nM.
Turning to `COc1cc(CNC(=O)c2ccc(CNS(=O)(=O)c3ccc(F)c(Cl)c3)cn2)ccn1` [5-(3-chloro-4-fluorobenzenesulfon-amidomethyl)-N-[(2-methoxypyridin-4-yl)methyl]pyridine-2-carboxamide], the IC50 turned out to be 3020 nM.
Turning to `O=C(NCc1cccnc1)c1ccc(CNS(=O)(=O)c2ccc(F)c(Cl)c2)cn1` [5-(3-chloro-4-fluorobenzenesulfon-amidomethyl)-N-(pyridin-3-ylmethyl)pyridine-2-carboxamide], the IC50 was found to be 758 nM.
Consider `Cn1cncc1CNC(=O)c1cnc(CNS(=O)(=O)c2ccc(F)c(Cl)c2)cn1` [5-(3-chloro-4-fluorobenzenesulfon-amidomethyl)-N-[(1-methyl-1H-imidazol-5-yl)methyl]pyrazine-2-carboxamide], for which the IC50 stood at 8950 nM.
As for `O=C(NCc1cncnc1)c1ccc(CNS(=O)(=O)c2ccc(F)c(Cl)c2)cn1` [5-(3-chloro-4-fluorobenzenesulfon-amidomethyl)-N-(pyrimidin-5-ylmethyl)pyridine-2-carboxamide], the IC50 is 7390 nM.
For `Cc1ccncc1CNC(=O)c1ccc(CNS(=O)(=O)c2ccc(F)c(Cl)c2)cn1` [5-(3-chloro-4-fluorobenzenesulfon-amidomethyl)-N-[(4-methylpyridin-3-yl)methyl]pyridine-2-carboxamide], the IC50 came out at 187 nM.
On the same count and under the same terms, in the case of `Cc1nnc(CNC(=O)c2ccc(CNS(=O)(=O)c3ccc(F)c(Cl)c3)cn2)s1` [5-(3-chloro-4-fluorobenzenesulfon-amidomethyl)-N-[(5-methyl-1,3,4-thiadiazol-2-yl)methyl]pyridine-2-carboxamide] it was 1020 nM.
Same read-out and setting: in the case of `Cc1ncc(CNC(=O)c2ccc(CNS(=O)(=O)c3ccc(Cl)c(F)c3)cn2)s1` [5-(4-chloro-3-fluorobenzenesulfon-amidomethyl)-N-[(2-methyl-1,3-thiazol-5-yl)methyl]pyridine-2-carboxamide] it was 7450 nM.
Regarding `CC(NC(=O)c1ccc(CNS(=O)(=O)c2ccc(F)c(Cl)c2)cn1)c1ccco1` (stereo not shown) [5-(3-chloro-4-fluorobenzenesulfon-amidomethyl)-N-[1-(furan-2-yl)ethyl]pyridine-2-carboxamide], the IC50 was determined as 5510 nM.
In the case of `CC(NC(=O)c1ccc(CNS(=O)(=O)c2ccc(F)c(Cl)c2)cn1)c1cccs1` (stereo not shown) [5-(3-chloro-4-fluorobenzenesulfon-amidomethyl)-N-[1-(thiophen-2-yl)ethyl]pyridine-2-carboxamide], the IC50 worked out at 2400 nM.
Same read-out and setting: in the case of `CCc1nc(C(=O)NCc2cnc(C)s2)cnc1CNS(=O)(=O)c1ccc(F)c(Cl)c1` [5-(3-chloro-4-fluorobenzenesulfon-amidomethyl)-6-ethyl-N-[(2-methyl-1,3-thiazol-5-yl)methyl]pyrazine-2-carboxamide] it was 87.8 nM; in that of `Cc1ncc(CNC(=O)c2cnc(CNS(=O)(=O)c3ccc(Cl)c(Cl)c3)c(C)n2)s1` [5-(3,4-dichlorobenzenesulfon-amidomethyl)-6-methyl-N-[(2-methyl-1,3-thiazol-5-yl)methyl]pyrazine-2-carboxamide], 494 nM.
Regarding `O=C(NCc1cccnc1)c1ccc(CNS(=O)(=O)c2ccc(F)c(Cl)c2)nc1` [6-(3-chloro-4-fluorobenzenesulfon-amidomethyl)-N-(pyridin-3-ylmethyl)pyridine-3-carboxamide], the IC50 came out at 11000 nM.
As to `O=C(NCc1ccncc1)c1cnc(CNS(=O)(=O)c2ccc(F)c(Cl)c2)cn1` [5-(3-chloro-4-fluorobenzenesulfon-amidomethyl)-N-(pyridin-4-ylmethyl)pyrazine-2-carboxamide], the IC50 turned out to be 1700 nM.
Regarding `Cn1cc(CNC(=O)c2ccc(CNS(=O)(=O)c3ccc(F)c(Cl)c3)cn2)cn1` [5-(3-chloro-4-fluorobenzenesulfon-amidomethyl)-N-[(1-methyl-1H-pyrazol-4-yl)methyl]pyridine-2-carboxamide], the IC50 stood at 4590 nM.
For `Cc1ccncc1CNC(=O)c1cnc(CNS(=O)(=O)c2ccc(F)c(Cl)c2)cn1` [5-(3-chloro-4-fluorobenzenesulfon-amidomethyl)-N-[(4-methylpyridin-3-yl)methyl]pyrazine-2-carboxamide], the IC50 is 108 nM.
Regarding `O=C(NCc1nccs1)c1ccc(CNS(=O)(=O)c2ccc(F)c(Cl)c2)cn1` [5-(3-chloro-4-fluorobenzenesulfon-amidomethyl)-N-(1,3-thiazol-2-ylmethyl)pyridine-2-carboxamide], the IC50 was 9130 nM.
The same measure, in the same setting: in the case of `Cc1ccc(CNC(=O)c2cnc(CNS(=O)(=O)c3ccc(F)c(Cl)c3)cn2)n1C` [5-(3-chloro-4-fluorobenzenesulfon-amidomethyl)-N-[(1,5-dimethyl-1H-pyrrol-2-yl)methyl]pyrazine-2-carboxamide] it was 757 nM.
For `Cc1ncc(CNC(=O)c2ccc(CNS(=O)(=O)c3ccc(Cl)c(Cl)c3)cn2)s1` [5-(3,4-dichlorobenzenesulfon-amidomethyl)-N-[(2-methyl-1,3-thiazol-5-yl)methyl]pyridine-2-carboxamide], the IC50 was found to be 6680 nM.
For `C[C@@H](NC(=O)c1ccc(CNS(=O)(=O)c2ccc(F)c(Cl)c2)nc1)c1cncs1` [6-(3-chloro-4-fluorobenzenesulfon-amidomethyl)-N-[(1R)-1-(1,3-thiazol-5-yl)ethyl]pyridine-3-carboxamide], the IC50 was at least 10000 nM.
For the molecule `Cc1cnc(CNC(=O)c2ccc(CNS(=O)(=O)c3ccc(F)c(Cl)c3)nc2)cn1` [6-(3-chloro-4-fluorobenzenesulfon-amidomethyl)-N-[(5-methylpyrazin-2-yl)methyl]pyridine-3-carboxamide], the IC50 is 630 nM.
For `O=C(NCc1cncs1)c1ccc(CNS(=O)(=O)c2ccc(F)c(Cl)c2)cn1` [5-(3-chloro-4-fluorobenzenesulfon-amidomethyl)-N-(1,3-thiazol-5-ylmethyl)pyridine-2-carboxamide], the IC50 was found to be 347 nM.
In the case of `O=C(NCc1cnccn1)c1cnc(CNS(=O)(=O)c2ccc(F)c(Cl)c2)cn1` [5-(3-chloro-4-fluorobenzenesulfon-amidomethyl)-N-(pyrazin-2-ylmethyl)pyrazine-2-carboxamide], the IC50 is 2100 nM.
Regarding `O=C(NCc1cnccn1)c1ccc(CNS(=O)(=O)c2ccc(F)c(Cl)c2)cn1` [5-(3-chloro-4-fluorobenzenesulfon-amidomethyl)-N-(pyrazin-2-ylmethyl)pyridine-2-carboxamide], the IC50 amounted to 1690 nM.

Staying with this experiment, now noted: binned NR2A inhibition concentration, read-out: Binned Activity.
With `C[C@@H](NC(=O)c1ccc(CNS(=O)(=O)c2ccc(F)c(Cl)c2)nc1)c1cncs1` [6-(3-chloro-4-fluorobenzenesulfon-amidomethyl)-N-[(1R)-1-(1,3-thiazol-5-yl)ethyl]pyridine-3-carboxamide], the IC50 is over 10000 nM.
